Experimental data reported in PMC12339163, “Combining Plant Bioactives With Antibiotics for Enhanced Antibiofilm Activity Against Uropathogenic Staphylococcus spp. and Cytotoxicity Evaluation” (Advances in Pharmacological and Pharmaceutical Sciences, 2025).
≈ marks a conversion by molar mass, not a printed value. Where “and” joins values, the source holds several entries; their conditions need not be identical. Identical values can stand only once.

Key:
[1] = system: planktonic cells of Staphylococcus epidermidis; test: Checkerboard combination assay, planktonic cells; assay type: cell-based; conditions: antibiotic alone; planktonic S. epidermidis; mean MIC
S. epidermidis = test: MIC and MBC, broth microdilution; assay type: cell-based, Staphylococcus epidermidis; conditions: Staphylococcus epidermidis, geometric mean, S. epidermidis (n = 3); for MBC: antibiotics, read-out: MBC; for MIC: read-out: MIC
Experimental: Seven clinical isolates of Staphylococcus spp. including 2 S. aureus, 3 S. saprophyticus, and 2 S. epidermidis were used. They were isolated from urine samples in our previous study. Two reference strains (S. aureus ATCC1026 and S. epidermidis ATCC35984) obtained from the American Type Culture Collection were also included. They were kept in the mixture of glycerol and Mueller Hinton Broth (MHB) (1:1) at −20°C, and the activation was achieved using the streak technique on Mueller Hinton agar (MHA) medium.
The MICs of ATBs and NPs were determined by the broth microdilution method as previously described. NPs and ATBs were, respectively, prepared at 4096 µg/mL and 512 µg/mL and serially diluted twofold with MHB in a 96-well microplate at a volume of 100 µL. Then, the wells were filled with 100 µL of inoculum (1.5 × 10^6 CFU/mL) to give final concentrations ranging from 1024 µg/mL to 0.5 µg/mL and 128 µg/mL to 0.062 µg/mL of NPs and ATBs, respectively. The microplates were incubated for 24 h at 37°C. Wells containing only bacterial inoculum were used as the negative control. After incubation, a volume of 40 µL of INT solution (0.2 mg/mL) was added to each well, and the microplate was incubated at 37°C for 30 min. Viable bacteria cells change the yellow dye of INT to a pink color. The MIC was considered as the lowest concentration of the sample at which there was no change in the coloration of the medium, corresponding to the complete inhibition of microbial growth.
All tests were performed in triplicate.

[2] = system: Staphylococcus epidermidis biofilm; test: Checkerboard combination assay, biofilm eradication; assay type: cell-based
Experimental: The effect of the combination of ATBs with NPs on the preformed biofilm was evaluated by determining the FICI, as described above for biofilm formation, with slight modifications. After biofilm formation for 24 h, the plate was gently emptied and washed three times with PBS. Then, 50 µL of ATBs and 50 µL of NPs were introduced to the plate. The final concentration ranges from 0.0625 to 128 µg/mL and from 4 to 512 µg/mL for ATBs and NPs, respectively, and is incubated at 37°C for 24 h. After incubation, the medium was gently removed, and the plate was washed three times with PBS. At the end of the incubation time, the MTT reduction assay was performed, and the MBEC was determined. To assess the effect of the combination, the FICI was calculated and interpreted as described above.

S. aureus biofilm = test: Biofilm eradication assay (MBEC, MTT); assay type: cell-based, Staphylococcus aureus; conditions: Staphylococcus aureus, 24 h; geometric mean, S. aureus (n = 3)
Experimental: The determination of the biofilm eradication potential of NPs and ATBs was performed as previously described. Briefly, 100 µL of bacterial inoculum (1.5 × 10^6 CFU/mL) and 100 µL of MHB + 1% glucose were introduced into the microplate, incubated at 37°C for 24 h, and the microplate was gently emptied and washed three times with PBS. Then, 200 µL of ATBs or NPs at respective concentrations ranging from 8 to 1024 µg/mL and from 16 to 2048 µg/mL were incubated at 37°C for 24 h. Once incubation was completed, the microplate was processed as described above, and the percentage of biofilm eradication was calculated using the formula below. The minimal biofilm eradicating concentration (MBEC) was recorded as the lowest concentration of the test sample that reduces 100% of biofilm:(2) % biofilm eradication=ODcontrol−ODblank−ODtest−ODblank/ODcontrol−ODblank×100.

[3] = system: Staphylococcus saprophyticus biofilm; test: Checkerboard combination assay, biofilm inhibition; assay type: cell-based
Experimental: (§1) The effect of the combination of ATBs with NPs on biofilm formation was evaluated by determining the FICI, as described above for planktonic cells, except that the MHB was supplemented with 1% glucose.
(§2) The lowest MBICs of ATBs or NPs that inhibited metabolic activity in the biofilm were determined as described above. The FICI was used to perform the effect of combination and calculated as follows: FICI: (MBIC of ATBs in combinations/MBIC of ATBs alone) + (MBIC of NP in the combinations/MBIC of NP alone). FICI was interpreted as indicated above.

[4] = system: Staphylococcus aureus biofilm; test: Checkerboard combination assay, biofilm inhibition; assay type: cell-based; conditions: antibiotic alone; S. aureus biofilm inhibition
Experimental: as §1, §2

[5] = system: Staphylococcus epidermidis biofilm; test: Checkerboard combination assay, biofilm inhibition; assay type: cell-based
Experimental: as §1, §2

[6] = S. epidermidis biofilm eradication, antibiotic alone, mean MBEC
[7] = S. saprophyticus, biofilm inhibition, mean
[8] = antibiotic alone, S. saprophyticus biofilm inhibition

Row | MIC alone, ATB [1] [µg/mL] | MIC (S. epidermidis) [µg/mL] | SMILES | MBC (S. epidermidis) [µg/mL] | MBEC Alone ATB [2, 6] [µg/mL] | MBEC Alone ATB ([2]; S. epidermidis, biofilm eradication, mean) [µg/mL] | minimal effective concentration (S. aureus biofilm) [µg/mL] | MBIC alone, ATB [3, 7] [µg/mL] | MBIC alone, ATB [3, 8] [µg/mL] | MBIC alone, ATB [4] [µg/mL] | MBIC alone, ATB ([5]; antibiotic alone, S. epidermidis biofilm inhibition, listed as Dox) | MBIC alone, ATB ([5]; S. epidermidis, biofilm inhibition, mean) [µg/mL] | MBIC alone, ATB ([5]; antibiotic alone, S. epidermidis biofilm inhibition) [µg/mL]
1 | 7 | 7 (≈ 15.8 µM) | C[C@H]1c2cccc(O)c2C(=O)C2=C(O)[C@]3(O)C(=O)C(C(N)=O)=C(O)[C@@H](N(C)C)[C@@H]3[C@@H](O)[C@@H]21 [Doxycycline, doxycycline] | 8 (≈ 18 µM) | 16 | 16 | 16 | 0.5 | 0.5 | 2.16 | 3.08 µg/mL and 3.41 µg/mL |  | 
2 | 26.8 | 26.8 (≈ 73.4 µM) | CC1(C)S[C@@H]2[C@H](NC(=O)[C@H](N)c3ccc(O)cc3)C(=O)N2[C@H]1C(=O)O [Amoxicillin, amoxicillin] | > 128 | 16 |  | 37.3 | 8.33 | 8.33 | 1.5 |  | 2.08 | 2.08
